The target in one data set is T1, Bile acid receptor (Homo sapiens, UniProt Q96RI1).
T1 sequence (Q96RI1 whole entry): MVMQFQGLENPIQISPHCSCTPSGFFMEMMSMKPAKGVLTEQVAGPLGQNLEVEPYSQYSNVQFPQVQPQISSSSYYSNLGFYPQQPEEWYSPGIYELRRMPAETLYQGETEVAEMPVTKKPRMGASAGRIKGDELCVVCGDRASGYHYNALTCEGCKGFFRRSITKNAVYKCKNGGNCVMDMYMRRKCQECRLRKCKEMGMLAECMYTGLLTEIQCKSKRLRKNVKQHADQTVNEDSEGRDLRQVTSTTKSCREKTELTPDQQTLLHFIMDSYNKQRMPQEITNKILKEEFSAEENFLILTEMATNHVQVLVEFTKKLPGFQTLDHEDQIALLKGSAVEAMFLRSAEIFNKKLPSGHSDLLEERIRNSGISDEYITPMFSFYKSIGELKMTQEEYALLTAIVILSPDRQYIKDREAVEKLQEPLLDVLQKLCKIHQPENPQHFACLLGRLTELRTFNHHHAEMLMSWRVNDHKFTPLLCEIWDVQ
Kind of data set: Agonist activity at human FXR expressed in HEK293T cells by luciferase reporter assay. The data set is classed as cell-based.

A short description of data set [1]: Clearance in male Sprague-Dawley rat at 1 mg/kg, iv measured by LC-MS/MS analysis. The note with it: in vivo. It counts as ADME, organism-based.
Data set [2] addresses T2, G-protein coupled bile acid receptor 1 (Homo sapiens, UniProt Q8TDU6).
T2 sequence (Q8TDU6 whole entry): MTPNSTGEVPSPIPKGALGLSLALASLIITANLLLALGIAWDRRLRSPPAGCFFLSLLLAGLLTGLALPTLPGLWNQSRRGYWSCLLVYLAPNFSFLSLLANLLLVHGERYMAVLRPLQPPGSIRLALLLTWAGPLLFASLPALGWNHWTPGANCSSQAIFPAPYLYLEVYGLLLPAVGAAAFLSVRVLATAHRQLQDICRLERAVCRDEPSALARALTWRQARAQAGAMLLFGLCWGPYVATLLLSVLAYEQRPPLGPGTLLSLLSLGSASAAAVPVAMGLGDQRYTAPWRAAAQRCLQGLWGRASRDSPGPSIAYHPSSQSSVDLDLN
Nature of the data set: Agonist activity in human GPBAR1 assessed as increase in intracellular cAMP level. It counts as functional, cell-based. In general terms: Changes in cAMP serve as a functional read-out for many G protein-coupled receptors.

Another data set addresses Estrogen receptor beta (Homo sapiens, UniProt Q92731). Nature of the data set: Agonist activity at estrogen receptor beta (unknown origin).
For data set [3], the target named is T3, Bile acid receptor (Rattus norvegicus) (UniProt Q62735).
T3 sequence (whole entry): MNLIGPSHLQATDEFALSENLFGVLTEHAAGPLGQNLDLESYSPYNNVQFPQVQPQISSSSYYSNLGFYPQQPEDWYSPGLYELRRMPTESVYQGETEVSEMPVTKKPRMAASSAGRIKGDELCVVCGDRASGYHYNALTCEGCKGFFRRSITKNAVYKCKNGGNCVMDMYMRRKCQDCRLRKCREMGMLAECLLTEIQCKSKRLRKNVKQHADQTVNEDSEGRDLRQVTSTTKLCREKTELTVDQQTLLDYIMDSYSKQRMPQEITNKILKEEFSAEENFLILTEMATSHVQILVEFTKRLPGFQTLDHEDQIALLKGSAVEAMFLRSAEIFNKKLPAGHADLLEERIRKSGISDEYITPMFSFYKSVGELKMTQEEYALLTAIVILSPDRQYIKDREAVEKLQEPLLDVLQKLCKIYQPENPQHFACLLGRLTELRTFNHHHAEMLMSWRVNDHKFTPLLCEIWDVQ
Kind of data set: In vivo activation of FXR in male Sprague-Dawley rat assessed as fold increase in ileum FGF15 level at 5 mg/kg, po administered as single dose measured at 1 hr by RT-qPCR assay. The data set is classed as functional, organism-based. Background: In qPCR the cycle at which signal appears reflects the starting amount.

Data set [4] deals with Mus musculus. Kind of data set: Anti-NASH activity against high fat (HF) diet-induced nonalcoholic steatohepatitis in leptin-deficient ob/ob mouse model assessed as reduction in serum ALT level at 0.1 to 1 mg/kg, po administered once daily from week 5 to 10. It counts as functional, organism-based. The note with it: dose 0.1-1 mg/kg.
For data set [5], the system named is Mus musculus. Kind of data set: Anti-NASH activity in western style diet-induced nonalcoholic steatohepatitis model of male C57BL/6 mouse assessed as reduction in serum ALT level at 1 mg/kg, po administered once daily from week 32 to 44. The data set is classed as functional, organism-based.
Data set [6] has as its system Mus musculus. Nature of the data set: Antifibrotic activity in C57BL/6 mouse model of CCI4-induced liver fibrosis assessed as decrease in serum ALT level at 0.1 to 1 mg/kg, po administered once daily for 4 weeks. It counts as functional, organism-based. The note with it: dose 0.1-1 mg/kg.
Data set [7] is described as follows: Volume of distribution at steady state in male C57BL/6 mouse at 2 mg/kg, iv measured by LC-MS/MS analysis. It counts as ADME, organism-based. The note with it: in vivo, read-out: Vdss.
Data set [8] can be described thus: Half-life in male C57BL/6 mouse at 5 mg/kg, po measured by LC-MS/MS analysis. It counts as ADME, organism-based. The note with it: in vivo.
A short description of data set [9]: Oral bioavailability in male C57BL/6 mouse at 5 mg/kg measured by LC-MS/MS analysis. The data set is classed as ADME, organism-based. The note with it: in vivo.
Data set [10] is described as follows: Drug metabolism in feces of Sprague-Dawley rat assessed as production of toxic metabolites at 4.5 mg/kg, po administered as C14-lableled compound with single dose. The data set is classed as ADME, organism-based. The note with it: in vivo.
The nature of data set [11]: Drug recovery in kidney of male Sprague-Dawley rat at 4.5 mg/kg, po administered as C14-lableled compound and assessed as radioactivity and measured at 0.25 hrs. The note with it: in vivo. The data set is classed as ADME, organism-based.
A short description of data set [12]: Drug recovery in ileum of male Sprague-Dawley rat at 4.5 mg/kg, po administered as C14-lableled compound and assessed as radioactivity and measured at 0.25 hrs. It counts as ADME, organism-based. The note with it: in vivo.
A short description of data set [13]: Drug recovery in skin of male Sprague-Dawley rat at 4.5 mg/kg, po administered as C14-lableled compound and assessed as radioactivity and measured at 0.25 hrs. The data set is classed as ADME, organism-based, Skin of body. The note with it: in vivo.
The nature of data set [14]: Drug recovery in brain of male Sprague-Dawley rat at 4.5 mg/kg, po administered as C14-lableled compound and assessed as radioactivity and measured at 1 hr. The data set is classed as ADME, organism-based. The note with it: in vivo.
Data set [15] can be described thus: Drug recovery in lung of male Sprague-Dawley rat at 4.5 mg/kg, po administered as C14-lableled compound and assessed as radioactivity and measured at 1 hr. The data set is classed as ADME, organism-based. The note with it: in vivo.
A short description of data set [16]: Drug recovery in plasma of male Sprague-Dawley rat at 4.5 mg/kg, po administered as C14-lableled compound and assessed as radioactivity and measured at 1 hr. The data set is classed as ADME, organism-based. The note with it: in vivo.
Data set [17] is described as follows: Drug recovery in heart of male Sprague-Dawley rat at 4.5 mg/kg, po administered as C14-lableled compound and assessed as radioactivity and measured at 6 hrs. The note with it: in vivo, BLD = below limit of detection. The data set is classed as ADME, organism-based.
Data set [18] can be described thus: Drug recovery in stomach of male Sprague-Dawley rat at 4.5 mg/kg, po administered as C14-lableled compound and assessed as radioactivity and measured at 6 hrs. The data set is classed as ADME, organism-based. The note with it: in vivo.
A short description of data set [19]: Drug recovery in liver of male Sprague-Dawley rat at 4.5 mg/kg, po administered as C14-lableled compound and assessed as radioactivity and measured at 24 hrs. The data set is classed as ADME, organism-based. The note with it: in vivo.
Data set [20] in a line: Ratio of drug level in heart to plasma in male Sprague-Dawley rat at 4.5 mg/kg, po administered as C14-lableled compound and measured at 0.25 to 6 hrs. It counts as ADME, organism-based. The note with it: other tissue, time 0.25-6 hrs.
Data set [21] is described as follows: Toxicity in po dosed Sprague-Dawley rat assessed as maximum tolerated dose. The data set is classed as organism-based. The note with it: in vivo.

The source made the active and inactive calls. The rule behind the calls is not given here.

Estrogen receptor beta, sequence (Q92731 whole entry): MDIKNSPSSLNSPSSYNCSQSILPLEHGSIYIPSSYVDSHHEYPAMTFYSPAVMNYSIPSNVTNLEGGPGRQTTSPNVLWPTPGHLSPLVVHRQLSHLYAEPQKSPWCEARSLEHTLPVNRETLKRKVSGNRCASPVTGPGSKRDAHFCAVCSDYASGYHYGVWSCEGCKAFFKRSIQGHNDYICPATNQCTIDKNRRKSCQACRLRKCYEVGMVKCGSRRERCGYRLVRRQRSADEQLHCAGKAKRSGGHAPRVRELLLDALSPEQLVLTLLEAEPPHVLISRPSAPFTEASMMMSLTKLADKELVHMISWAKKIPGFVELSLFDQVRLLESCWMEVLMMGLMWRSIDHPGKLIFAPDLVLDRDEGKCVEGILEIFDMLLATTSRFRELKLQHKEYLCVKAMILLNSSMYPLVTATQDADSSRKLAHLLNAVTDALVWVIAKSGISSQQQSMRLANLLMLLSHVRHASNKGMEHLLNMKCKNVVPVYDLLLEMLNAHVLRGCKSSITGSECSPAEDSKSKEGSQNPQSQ

With `O=C(O)c1ccc2c(c1)Oc1ccc(OCc3c(-c4c(Cl)cccc4Cl)noc3C3CC3)nc1C1(CC1)C2`, the EC50 – broadly, the midpoint of the concentration-response curve – at Bile acid receptor was 0.00155 µM; in data set [2] it was > 10 µM; at Estrogen receptor beta, > 10 µM. Further, the clearance – broadly, the volume of plasma or blood freed of the substance per unit of time – in data set [1] was determined as 35.3 mL/min/kg. Moreover, the fold change (FC) in data set [3] was 24. For the same molecule, the result with Mus musculus [4], in the data set with Mus musculus [5] and in the data set with Mus musculus [6] was Active. In addition, the Vd in [7] was determined as 3.83 L/kg. Moreover, the half-life (as a rule, how long it takes for the measured level to halve) in data set [8] was 1.06 h. For the same molecule, the bioavailability (commonly dose-corrected exposure relative to a reference, in per cent) in [9] amounted to 82.5%. Besides, the Drug metabolism entry in data set [10] was “Metabolite_Notdetected”. For the same molecule, the Drug recovery in data set [11] is on record as 281 ngequiv/g; in data set [12] it was 606 ngequiv/g; in data set [13] it was 33.3 ngequiv/g; in [14] it was 38.2 ngequiv/g; in data set [15], 814 ngequiv/g; in data set [16] it was 305 ngequiv/g. Besides, the Drug recovery result in data set [17] is “Bld”; in data set [18] it was 188 ngequiv/g; in [19], 304 ngequiv/g. In addition, the Ratio in [20] was 1. The MTD – broadly, the largest dose that counted as tolerated – in data set [21] was found to be 2000 mg/kg.

(Values after ChEMBL document CHEMBL5154690, “Discovery of a tricyclic farnesoid X receptor agonist HEC96719, a clinical candidate for treatment of non-alcoholic steatohepatitis” (Eur J Med Chem, 2022).)
